According to patent USRE37781E1, “Substituted cyclic carbonyls and derivatives thereof useful as retroviral protease inhibitors” (DuPont Pharmaceuticals Company, priority 1991, dated 2002):
In brackets after ≈: the same amount, converted by molar mass. Counter-ions that a name gives are not always drawn. Like-named read-outs stand apart in the source and are kept apart here.

Assays:
HIV-1 (RF) in MT-2 cells = experiment: microbe, parasite or virus in culture; type: cell-based
How it was run: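 Read-out: gag and pol viral RNA captured by 5′-biotinylated oligonucleotides on streptavidin-coated wells, detected with alkaline phosphatase-linked reporter oligonucleotides, calibrated against BH10 in vitro transcripts. Virus stocks (RF, MN, IIIB) come from H9 cultures; MT-2 host cells kept in RPMI 1640, 5% FCS.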

[1] = biological target: single-chain tethered dimer of HIV protease (Human immunodeficiency virus 1, UniProt P04585); experiment: biochemical; type: biochemical; set-up: fused on or other part: A second copy of the same protease unit is joined to the first by a short peptide tether, giving one polypeptide
[2] = Table 2d, HIV protease inhibition, HPLC method, read-out: HPLC K1
[3] = Human immunodeficiency virus 1, MT2, 48 h, Table 2d, class symbols, read-out: IC90
[4] = read-out: HPLC K1, Table 2d, class symbols
[5] = Table 2d, class symbols, read-out: HPLC K1
[6] = Human immunodeficiency virus 1, MT2, 48 h, Table 2d, HIV RNA assay, read-out: IC90
[7] = read-out: HPLC K1, Table 2d, HIV protease inhibition, HPLC method

`O=C1N(Cc2cccc(-c3ncc[nH]3)c2)C(Cc2ccccc2)C(O)C(O)C(Cc2ccccc2)N1Cc1cccc(-c2ncc[nH]2)c1` (centres unmarked) (as salt: hydrochloride) [Example 15BS] showed a melting point of 191 to 194 °C.
For `Cl.Cl.O=C(Nc1cccc(CN2C(=O)N(Cc3cccc(NC(=O)c4ccncc4)c3)C(Cc3ccccc3)C(O)C(O)C2Cc2ccccc2)c1)c1ccncc1` (centres unmarked) [Example 15AC], the IC90 (HIV-1 (RF) in MT-2 cells; Table 2d, HIV RNA assay) was “+++ (+++=<10 μg/mL)” and the Ki [1, 2] was < 0.01 µM.
With `O=C1N(Cc2cccc(I)c2)C(Cc2ccccc2)C(O)C(O)C(Cc2ccccc2)N1Cc1cccc(I)c1` (centres unmarked) [Example 12J] the IC90 (HIV-1 (RF) in MT-2 cells; [3]) was < 10 µg/mL and the Ki [1, 4] was < 0.01 µM.
With `NC(=O)c1cc(CN2C(=O)N(Cc3ccc(F)c(C(N)=NO)c3)C(Cc3ccccc3)C(O)C(O)C2Cc2ccccc2)ccc1F` (centres unmarked) [15EH] the IC90 (HIV-1 (RF) in MT-2 cells; Table 2d, HIV RNA assay) was “+++ (+++=<10 μg/mL)” and the Ki [1, 2] was < 0.01 µM.
For `O=C1N(Cc2cccnc2Cl)C(Cc2ccccc2)C(O)C(O)C(Cc2ccccc2)N1Cc1cccnc1Cl` (centres unmarked) [Example 14A], the IC90 (HIV-1 (RF) in MT-2 cells; [3]) was 10 to 100 µg/mL (≈ 17.3 to 173 µM) and the Ki [1, 4] was 0.01 to 1 µM.
In the case of `CCCCN1C(Cc2ccccc2)C(O)C(O)C(Cc2ccccc2)N(CCCC)S1(=O)=O` (centres unmarked) [23G], the IC90 (HIV-1 (RF) in MT-2 cells; Table 2m) is reported as “+++ (+++=<10 μg/mL)” and the Ki ([1]; Table 2m, read-out: HPLC Ki) is reported as < 0.01 µM.
In the case of `Cc1cncc(O)c1CN1C(=O)N(Cc2c(C)cncc2O)C(Cc2ccccc2)C(O)C(O)C1Cc1ccccc1` (centres unmarked) [Example 14K], the IC90 (HIV-1 (RF) in MT-2 cells; Table 2d, class symbols) is reported as “+ (+=>100 μg/mL)” and the Ki [1, 5] is reported as 0.01 to 1 µM.
For `O=S1(=O)NC(Cc2ccccc2)C(O)C(O)C(Cc2ccccc2)N1CCCCCO` (centres unmarked) [23AE], the IC90 (HIV-1 (RF) in MT-2 cells; Table 2m) was “++/+ (The ++/+ is used in the cases where an IC90 was determined to be >50 μg/mL)” and the Ki ([1]; Table 2m, read-out: HPLC Ki) was 0.01 to 1 µM.
With `CCNC(=O)c1cccc(CN2C(=O)N(Cc3cccc(CO)c3)C(Cc3ccccc3)C(O)C(O)C2Cc2ccccc2)c1` (centres unmarked) [15WK] the IC90 (HIV-1 (RF) in MT-2 cells; [3]) was < 10 µg/mL and the Ki [1, 4] was < 0.01 µM.
In the case of `N#Cc1cccc(CN2C(=S)N(Cc3cccc(C#N)c3)C(Cc3ccccc3)C(O)C(O)C2Cc2ccccc2)c1` (centres unmarked) [Example 27K], the IC90 (HIV-1 (RF) in MT-2 cells; Table 2q) is reported as “+++ (+++=<10 μg/mL)” and the Ki ([1]; Table 2q, read-out: HPLC Ki) is reported as < 0.01 µM.
For `O=C1N(Cc2cccnc2)C(Cc2ccccc2)C(O)C(O)C(Cc2ccccc2)N1Cc1cccc(CO)c1` (centres unmarked) [15WS], the IC90 (HIV-1 (RF) in MT-2 cells; [3]) was < 10 µg/mL and the Ki [1, 4] was < 0.01 µM.
In the case of `CN1C(Cc2ccccc2)C(O)C(O)C(Cc2ccccc2)N(C)S1(=O)=O` (centres unmarked) [23V], the IC90 (HIV-1 (RF) in MT-2 cells; Table 2m) is reported as “++/+ (The ++/+ is used in the cases where an IC90 was determined to be >50 μg/mL)” and the Ki ([1]; Table 2m, read-out: HPLC Ki) is reported as > 1 µM.
With `COC(=O)NCCCCCN1C(=O)N(CCCCCNC(=O)OC)C(Cc2ccccc2)C(O)C(O)C1Cc1ccccc1` (centres unmarked) [15EQ] the IC90 (HIV-1 (RF) in MT-2 cells; Table 2d, HIV RNA assay) was “++/+ (The ++/+ is used in the cases where an IC90 was determined to be >50 μg/mL)” and the Ki [1, 2] was 0.01 to 1 µM.
With `CNCc1cccc(CN2C(=O)N(Cc3cccc(CNC)c3)C(Cc3ccccc3)C(O)C(O)C2Cc2ccccc2)c1` (centres unmarked) [Example 15XC] the IC90 (HIV-1 (RF) in MT-2 cells; [6]) was < 10 µg/mL and the Ki [1, 7] was 0.01 to 1 µM.
With `O=C1N(Cc2cnccc2Cl)C(Cc2ccccc2)C(O)C(O)C(Cc2ccccc2)N1Cc1cnccc1Cl` (centres unmarked) [Example 13Z] the IC90 (HIV-1 (RF) in MT-2 cells; Table 2d, class symbols) was “+++ (+++=<10 μg/mL)” and the Ki [1, 5] was 0.01 to 1 µM.
For `COC(=O)c1cc(CN2C(=O)N(Cc3ccc(F)c(C(=O)OC)c3)C(Cc3ccccc3)C(O)C(O)C2Cc2ccccc2)ccc1F` (centres unmarked) [15EE], the IC90 (HIV-1 (RF) in MT-2 cells; Table 2d, HIV RNA assay) was “+ (+=>100 μg/mL)” and the Ki [1, 2] was < 0.01 µM.
For `CNC(=NO)c1cccc(CN2C(=O)N(Cc3cccc(C(=NO)NC)c3)C(Cc3ccccc3)C(O)C(O)C2Cc2ccccc2)c1` (centres unmarked) [15AZ], the IC90 (HIV-1 (RF) in MT-2 cells; Table 2d, HIV RNA assay) was “+++ (+++=<10 μg/mL)” and the Ki [1, 2] was < 0.01 µM.
In the case of `O=C(NCCCCCN1C(=O)N(CCCCCNC(=O)Nc2ccccc2)C(Cc2ccccc2)C(O)C(O)C1Cc1ccccc1)Nc1ccccc1` (centres unmarked) [15ER], the IC90 (HIV-1 (RF) in MT-2 cells; Table 2d, HIV RNA assay) is reported as “++/+ (The ++/+ is used in the cases where an IC90 was determined to be >50 μg/mL)” and the Ki [1, 2] is reported as 0.01 to 1 µM.
For `O=C(NCCCCCN1C(=O)N(CCCCCNC(=O)c2ccccc2F)C(Cc2ccccc2)C(O)C(O)C1Cc1ccccc1)c1ccccc1F` (centres unmarked) [15FB], the IC90 (HIV-1 (RF) in MT-2 cells; HIV RNA assay, HIV-1 infected MT-2 cells, Table 2d) was “+++ (+++=<10 μg/mL)” and the Ki ([1]; HIV protease inhibition, HPLC method, Table 2d, read-out: HPLC K1) was 0.01 to 1 µM.
For `O=C1NC(Cc2ccccc2)C(O)C(O)C(Cc2ccccc2)N1CCCCCCO` (centres unmarked) [Example 12C], the IC90 (HIV-1 (RF) in MT-2 cells; [3]) was < 10 µg/mL and the Ki [1, 4] was < 0.01 µM.
For `O=C1N(Cc2cccc(Cn3ccnc3)c2)C(Cc2ccccc2)C(O)C(O)C(Cc2ccccc2)N1Cc1cccc(Cn2ccnc2)c1` (centres unmarked) [Example 15XG], the IC90 (HIV-1 (RF) in MT-2 cells; [6]) was < 10 µg/mL and the Ki [1, 7] was < 0.01 µM.
For `O=C1NC(Cc2ccccc2)C(O)C(O)C(Cc2ccccc2)N1Cc1cccc(-c2cc[nH]n2)c1` (centres unmarked) [Example 15BX], the IC90 (HIV-1 (RF) in MT-2 cells; [6]) was < 10 µg/mL and the Ki [1, 7] was < 0.01 µM.
With `O=P1(Oc2ccccc2)N(Cc2cccc(CO)c2)[C@H](Cc2ccccc2)[C@H](O)[C@@H](O)[C@@H](Cc2ccccc2)N1Cc1cccc(CO)c1` (some centres unmarked) [28J] the IC90 (HIV-1 (RF) in MT-2 cells; Table 2r) was “++ (++=10 to 100 μg/mL)” and the Ki ([1]; Table 2r, read-out: Ki HPLC) was 0.01 to 1 µM.
With `CCNc1n[nH]c2ccc(CN3C(=O)N(Cc4ccc5[nH]nc(NCC)c5c4)C(Cc4ccccc4)C(O)C(O)C3Cc3ccccc3)cc12` (centres unmarked) [15DJ] the IC90 (HIV-1 (RF) in MT-2 cells; Table 2d, HIV RNA assay) was “+++ (+++=<10 μg/mL)” and the Ki [1, 2] was < 0.01 µM.
